Results taken from article PMC8587047, “Synthesis and Biological Evaluation of Harmirins, Novel Harmine–Coumarin Hybrids as Potential Anticancer Agents” (Molecules, 2021).
Read-outs that look alike come from different tables or passages of the source.

Columns and labels:
HepG2 = test: MTT cytotoxicity assay, HepG2; type: cell-based; details: Homo sapiens, read-out: IC50 HepG2
Text: (§1) We selected four different cancer cell lines for antiproliferative screening in vitro, which we believed would provide sufficient data on the anticancer potential of the prepared harmirins (hepatocellular carcinoma—HepG2, colorectal adenocarcinoma, Dukes’ type C—SW620, colorectal carcinoma—HCT116, and breast adenocarcinoma—MCF-7). Additionally, we included one non-cancer cell line (embryonic kidney—HEK293T) to evaluate harmirins’ selectivity. The commonly used anticancer drug 5-FU and harmine were used as positive controls. Pre-screening was performed using 50 µM of the tested compound. Only compounds that led to more than 50% reduction in mitochondrial metabolic activity at 50 µM concentration were selected for further analysis. The selectivity index (SI) for each harmirin was calculated as a fractional ratio between the IC50 values for HEK293T and the cancer cell line MCF-7 or HCT116 since these two cell lines were the most susceptible to harmirins.
(§2) The experiments were carried out on five human cell lines purchased from American Type Culture Collection (ATCC, PO BOX 1549, manassas, VA 20108, USA): HepG2 (hepatocellular carcinoma; ATCC® HB-8065™), SW620 (colorectal adenocarcinoma; ATCC® CCL-227™), HCT116 (colorectal carcinoma ATCC® CCL-247™), MCF-7 (breast adenocarcinoma, ATCC® HTB-22™), and HEK293T (embryonic kidney cells; ATCC® CRL-3216™). All cell lines were cultured as monolayers and maintained in Dulbecco’s modified Eagle medium (DMEM) (Capricorn Scientific, USA), supplemented with 10% fetal bovine serum (FBS) (Capricorn Scientific, USA), 100 U/mL penicillin, and 100 µg/mL streptomycin (Capricorn Scientific, USA) in a humidified atmosphere with 5% CO2 at 37 °C. Cells were seeded in 96-well plates (Corning, Durham, NC, USA) at 5000–7000 cells per well (depending on the cell doubling time of a specific cell line) in 0.1 mL media and cultured for 24 h. The next day, the medium was aspirated, and cells were treated for 72 h. Only the compounds that led to more than a 50% reduction in mitochondrial metabolic activity at a concentration of 50 µM were selected for further analysis. The following concentrations of selected compounds were used: 25, 10, 5, and 1 µM. Working dilutions were freshly prepared on the day of the testing. A fresh growth medium was added to untreated control cells, which were defined as 100% viable. DMSO (0.13%) in DMEM was considered a negative control. 5-Fluorouracil (5-FU) and harmine were used as positive controls. At the end of treatment, media was removed, and cells were incubated for 1 h with 0.5 mg/mL MTT (Abcam, Cambridge, MA, USA) dissolved in serum-deprived DMEM. The absorbance was directly proportional to cell viability. The MTT-containing media was then removed, and 0.1 mL isopropanol was added per well to lyse cells and dissolve formazan. The optical density was measured at 570 nm using a microplate reader (VICTOR3, PerkinElmer). Each test point was performed in triplicate. The IC50 values (concentration required to decrease viability by 50%) were calculated by using nonlinear regression on the sigmoidal dose–response plots and are expressed as mean ± SD.

SW620 = test: MTT cytotoxicity assay, SW620; type: cell-based; details: Homo sapiens, read-out: IC50 SW620
Text: as §1, §2

HCT116 = test: MTT cytotoxicity assay, HCT116; type: cell-based, human; details: for IC50: Homo sapiens, read-out: IC50 HCT116; for SI (HCT116): ratio IC50 HEK293T / IC50 HCT116
Text: as §1, §2

MCF-7 = test: MTT cytotoxicity assay, MCF-7; type: cell-based, human; details: for IC50: Homo sapiens, read-out: IC50 MCF-7; for activity against MCF-7, fold stronger than 5-FU: compared with 5-FU IC50; for activity against MCF-7, fold higher than harmine: compared with harmine IC50; for SI (MCF-7): ratio IC50 HEK293T / IC50 MCF-7
Text: as §1, §2

HEK293T = test: MTT cytotoxicity assay, HEK293T (non-cancer); type: cell-based, human; details: Homo sapiens, HEK-293T, 72 h, read-out: IC50 Hek293T
Text: as §1, §2

MCF-7 cells = test: Cell cycle analysis by flow cytometry (PI); type: cell-based, human; details: harmine 20 µM
Procedure: To gain further insight into the potential mechanism of activity of 12b, and to examine whether and how the cell growth inhibition was associated with cell cycle regulation, we assessed its influence on the cell cycle of MCF-7 cells, 24 and 48 h after the treatment and compared it with the influence of the reference compound harmine (Figure 4).
MCF-7 cells were seeded onto 6-well plates (3 × 10^5 cells per well). After 24 h, 12b was added at 10 µM concentration and harmine at 20 µM concentration. After 24 h or 48 h, the attached cells were trypsinized, combined with floating cells, washed with phosphate buffer saline (PBS), fixed with 70% ethanol, and stored at −20 °C. Immediately before analysis, the cells were washed with PBS and stained with 50 μg/mL of propidium iodide (PI) with the addition of 0.1 μg/μL of RNAse A. The stained cells were then analyzed by BD FACScalibur flow cytometer (20,000 counts were measured). The percentage of cells in each cell cycle phase was determined using FlowJo software (TreeStar Inc., USA). The tests were performed in duplicate and repeated in three separate experiments.

HeLa = test system: HeLa; parameters: method as in doi:10.1002/slct.201601020; details: read-out: GI50 against HeLa; cited from earlier work
HT-29 = test system: HT-29; parameters: method as in PMID 26657602; details: read-out: IC50 against HT-29; cited from earlier work
HGC-27 = test system: HGC-27; parameters: method as in PMID 26657602; details: read-out: IC50 against HGC-27; cited from earlier work
[1] = MTT, mean ± SD, non-cancer cell line
[2] = 12b 10 µM, after 24 h (12b: persisted after 48 h)

Compound | IC50 (HepG2; HepG2, MTT, 72 h, mean ± SD) [µM] | IC50 (SW620; SW-620, MTT, 72 h, mean ± SD) [µM] | IC50 (HCT116; HCT-116, MTT, 72 h, mean ± SD) [µM] | IC50 (MCF-7; MCF7, MTT, 72 h, mean ± SD) [µM] | IC50 (HEK293T; [1]) [µM] | melting point | SI (HCT116) (HCT116) | SI (MCF-7) (MCF-7) | other results
Cc1nccc2c1[nH]c1ccc(OCc3cn(-c4cc(=O)oc5ccc(F)cc45)nn3)cc12 [11d, 6-Fluoro-4-(4-(((1-methyl-9H-pyrido[3,4-b]indol-6-yl)oxy)methyl)-1H-1,2,3-triazol-1-yl)-2H-chromen-2-one] | 14.2 ± 0.4 | 12.7 ± 1.8 | 2.7 ± 0.4 | 1.9 ± 0.2 | 6.9 ± 0.6 | 224.5 to 225.5 °C (dec.) | – | – | activity against MCF-7, fold stronger than 5-FU (MCF-7): 9–13 fold; activity against MCF-7, fold higher than harmine (MCF-7): 5–7 fold
Cc1nccc2c1[nH]c1cc(OCc3cn(-c4cc(=O)oc5ccc(Cl)cc45)nn3)ccc12 [12c, 6-Chloro-4-(4-(((1-methyl-9H-pyrido[3,4-b]indol-7-yl)oxy)methyl)-1H-1,2,3-triazol-1-yl)-2H-chromen-2-one] | > 50 | > 50 | 37.6 ± 6.9 | 38.2 ± 2.5 | 46.2 ± 4.7 | 244 to 247 °C (dec.) | 1.2 | 1.2 | –
Cc1nccc2c1[nH]c1cc(OCc3cn(-c4cc(=O)oc5ccc(F)cc45)nn3)ccc12 [12d, 6-Fluoro-4-(4-(((1-methyl-9H-pyrido[3,4-b]indol-7-yl)oxy)methyl)-1H-1,2,3-triazol-1-yl)-2H-chromen-2-one] | > 50 | > 50 | > 50 | > 50 | > 50 | 249 to 251 °C (dec.) | >1 | >1 | –
COc1ccc2c3ccnc(C)c3n(Cc3cn(-c4cc(=O)oc5ccccc45)nn3)c2c1 [13a, 4-(4-((7-Methoxy-1-methyl-9H-pyrido[3,4-b]indol-9-yl)methyl)-1H-1,2,3-triazol-1-yl)-2H-chromen-2-one] | 19.6 ± 1.3 | > 50 | 3.4 ± 0.6 | 34 ± 2.1 | 12.4 ± 1.1 | 239 to 243.5 °C (dec.) | 3.6 | 0.4 | –
COc1ccc2c3ccnc(C)c3n(Cc3cn(-c4cc(=O)oc5ccc(C)cc45)nn3)c2c1 [13b, 4-(4-((7-Methoxy-1-methyl-9H-pyrido[3,4-b]indol-9-yl)methyl)-1H-1,2,3-triazol-1-yl)-6-methyl-2H-chromen-2-one] | > 50 | > 50 | > 50 | > 50 | > 50 | 253 to 255 °C (dec.) | >1 | >1 | –
COc1ccc2c3ccnc(C)c3n(Cc3cn(-c4cc(=O)oc5ccc(Cl)cc45)nn3)c2c1 [13c, 6-Chloro-4-(4-((7-methoxy-1-methyl-9H-pyrido[3,4-b]indol-9-yl)methyl)-1H-1,2,3-triazol-1-yl)-2H-chromen-2-one] | > 50 | > 50 | 34.4 ± 3.3 | 32 ± 1.9 | > 50 | 233 to 239.5 °C (dec.) | >1.5 | >1.6 | –
COc1ccc2c3ccnc(C)c3n(Cc3cn(-c4cc(=O)oc5ccc(F)cc45)nn3)c2c1 [13d, 6-Fluoro-4-(4-((7-methoxy-1-methyl-9H-pyrido[3,4-b]indol-9-yl)methyl)-1H-1,2,3-triazol-1-yl)-2H-chromen-2-one] | 3.1 ± 0.5 | 3.3 ± 0.4 | 12.7 ± 0.6 | 2.7 ± 0.5 | 3.9 ± 0.3 | 235 to 237 °C (dec.) | 0.3 | 1.5 | activity against MCF-7, fold stronger than 5-FU (MCF-7): 9–13 fold; activity against MCF-7, fold higher than harmine (MCF-7): 5–7 fold
COc1ccc2c(c1)[nH]c1c(C)nccc12 [HAR, harmine] | – | – | – | – | – | – | 3.2 | 0.9 | IC50 (HepG2; HepG2, 72 h): 18.7 ± 0.8 µM; IC50 (SW620; SW-620, 72 h): 4.7 ± 0.6 µM; IC50 (HCT116; HCT-116, 72 h): 4 ± 0.8 µM; IC50 (MCF-7; MCF7, 72 h): 13.5 ± 1.1 µM; IC50 (HEK293T): 12.6 ± 0.8 µM; accumulation of cells in the subG1 phase (apoptotic cells) (MCF-7 cells; 12b 10 µM, 48 h, data not shown): ≤ 15%; effect on G1 phase of cell cycle (MCF-7 cells; [2]): G1 delay; effect on percentage of cells in S phase (MCF-7 cells; [2]): reduction in cells in the S phase; effect on G2/M phase of cell cycle (MCF-7 cells; after 48 h): additional accumulation of cells in the G2/M phase
O=c1cc(-c2nccc3c2[nH]c2ccccc23)c2cc(Cl)ccc2o1 [coumarin–β-carboline hybrid] | – | – | – | – | – | – | – | – | GI50 (HeLa): 67.5 µM
COc1cc(-c2nc(Cn3cc(CN4C(=O)c5ccc(C)cc5C4=O)nn3)cc3c2[nH]c2ccccc23)cc(OC)c1OC [β-carboline–triazole hybrid] | – | – | – | – | – | – | – | – | IC50 (HT-29): 3.67 µM; IC50 (HGC-27): 5.44 µM
